Measurements: patent US20240252508A1, “Novel glucose uptake inhibitors for use in the treatment of cancer” (NOVELYEAST BV, priority 2021, published 2024)
Where two headings read alike, the source gives them in different places.

Columns and labels:
[1] = tested on: U266 multiple myeloma cell line; experiment: U266 proliferation (cell count); format: cell-based, human; settings: 25 μM, 4 days, RPMI with 1 mM glucose
Procedure: a. Cell count of the U266 multiple myeloma cell line after 4 days of growth on RPMI medium with 1 mM glucose. Cells were treated with either DMSO or 25 μM of WBC-A, -15C, -4C or -11C. Glucose consumption (b.) or lactate secretion (c.) rates are shown for U266 cells incubated in RPMI medium supplemented with 1 mM glucose for 8 h.

yeast Hxt7 carrier = biological target: T1, yeast Hxt7 carrier (Saccharomyces cerevisiae, UniProt P39004); experiment: Glucose uptake by Hxt7 expressed in hxt^0 gal2Δ (RE700A) yeast; format: cell-based, S. cerevisiae
T1 construct: HA (C); expressed in transfected cells; host or cells: S. cerevisiae RE700A (hxt0 gal2Δ) in A5; EBY.VW4000 (hxt0 erg4Δ) in A7; plasmid 'pHXT7'
Source text: To assess whether WBC-A could inhibit glucose transport activity of the GLUT carriers, we expressed human GLUT1^V69M and GLUT4^V85M in a hxt^0 gal2Δ (RE700A) and hxt^0 erg4Δ (EBY.VW4000) strain, respectively. These strains are both deficient in glucose uptake due to absence of all active glucose transporters. For functional GLUT expression in yeast, specific mutations had to be introduced in both sequences, whereas for GLUT4, an additional ERG4 gene deletion was required^64,65,66.
Zero-trans uptake of radioactively labeled [U-^14C]glucose, [U-^14C]fructose or [U-^14C]galactose by S. cerevisiae cells was determined in accordance with previous studies^44,66. Cells were grown on different carbon sources depending on the experiment. For measuring glucose uptake activity in the tps1Δ and tps1Δ hxtA strains (FIG. 1b,c), cells were grown on YP medium containing 3% glycerol (measurement of 10s). Typically, for compound characterization and kinetic studies in wild type and tps1Δ strains, cells were (pre)grown on Complete Synthetic medium supplemented with 2% galactose (measurement of 10s). […] The loaded filter was transferred to a scintillation vial containing 3 mL liquid scintillation cocktail (Ultima-Flo M, Perkin Elmer) and counted using the Hidex 300 SL. […]

tps1Δ cells [2] = experiment: Growth rescue of tps1Δ strain on glucose (growth curves, 2% galactose medium); format: cell-based, S. cerevisiae
Outline: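 Growth at 30 °C was tracked by OD595 readings every 30 min, with at least triplicate technical wells. Cells came from 2% galactose synthetic precultures, were washed and set to OD 0.1, and received compound 10 min ahead of the glucose addition.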

[3] = tested on: A549 lung adenocarcinoma cells; experiment: Steady-state glucose consumption and lactate production in A549 cells; format: cell-based, human; settings: 25 μM, 1 mM glucose, 8 h
Procedure: The influence of WBC compounds on the steady-state glucose consumption rate was studied in the A549 adenocarcinoma and KMS-12-PE multiple myeloma cell lines. As such, different parameters needed to be optimized depending on whether cells were adherent or in suspension. As such, A549 cells were incubated at 125,000 cells/well in a 24-well plate in 300 μL RPMI medium for 8 h. For the KMS-12-PE cell line, 100,000 cells/well were incubated in 100 μL RPMI medium in a 96-well plate for 8 h. Medium was collected, spun down and HPLC-analyzed for measuring glucose and lactate levels. Metabolite levels were corrected for cell number, which always varied little over the span of 8 h. For every condition, at least 4 technical repeats were included.

hexokinase = experiment: In vitro hexokinase activity in extracts of wild type cells; format: biochemical, S. cerevisiae; settings: 50 μM WBC-A
Procedure: In vitro hexokinase activity was determined as described previously 43, s. As such, cells were first grown to exponential phase on complete Synthetic medium supplemented with 2% galactose. The cells were harvested and washed with ice-cold 25 mM MES buffer pH 6. Subsequently, cells were resuspended in lysis buffer (50 mM HEPES pH 7, 150 mM NaCl, 2.5 mM MgCl2, 5% glycerol and 1% Triton X-100) containing protease inhibitor after which the cells were mechanically lysed. After protein level determination, total protein concentration was diluted to 0.1 mg/mL in reaction buffer (50 mM HEPES pH 7, 150 mM NaCl, 2.5 mM MgCl2, 5% glycerol). For measuring activity, reaction buffer was supplemented with 0.8 mg/mL NADP^+ and 50 μg/mL Glu6P dehydrogenase. After temperature equilibration of the plate at 30° C., the reaction was started by adding both ATP and glucose to the reaction buffer. OD340 was measured using the Synergy H1 Hybrid reader and hexokinase activity was determined based on the linear increase of absorbance in the first 10-20s.

tps1Δ cells [4] = experiment: Zero-trans glucose uptake in tps1Δ yeast cells; format: cell-based, S. cerevisiae; settings: for Ki: Dixon plot analysis
Procedure: (§1) Zero-trans uptake of radioactively labeled [U-^14C]glucose, [U-^14C]fructose or [U-^14C]galactose by S. cerevisiae cells was determined in accordance with previous studies^44,66. Cells were grown on different carbon sources depending on the experiment. For measuring glucose uptake activity in the tps1Δ and tps1Δ hxtA strains (FIG. 1b,c), cells were grown on YP medium containing 3% glycerol (measurement of 10s). Typically, for compound characterization and kinetic studies in wild type and tps1Δ strains, cells were (pre)grown on Complete Synthetic medium supplemented with 2% galactose (measurement of 10s). In the experiments on the influence of hexokinase activity on the sugar uptake rate, the measurement duration was shortened to 5s and cells were always grown on YP medium containing 3% glycerol and 2% ethanol. After harvesting, cells were washed twice with ice-cold 25 mM MES-buffer pH 6, and resuspended in their respective medium without sugar to a final concentration of 45 mg (wet weight)/mL. The amount of added tracer was estimated to give a response close to at least 1000 counts per min in order to adequately counter background noise. Cells were first preincubated for 10 min at 30° C. with the compound to acclimate the cells to the temperature and to allow adequate interaction with the compound prior to uptake. Next, hexose sugar was mixed with the cell suspension, which was then incubated for 5 or 10 s, depending on the experiment, after which the cells were rapidly filtered over a glass microfiber filter (Whatman GF/C) and washed three times with ice-cold dH2O. The loaded filter was transferred to a scintillation vial containing 3 mL liquid scintillation cocktail (Ultima-Flo M, Perkin Elmer) and counted using the Hidex 300 SL. Three blank measurements per strain were typically included to account for background signal, for which the cells were first quenched before adding the radioactive label.

wild type cells = experiment: Zero-trans glucose uptake in wild type yeast cells; format: cell-based, S. cerevisiae; settings: for Ki: Dixon plot analysis
Procedure: as §1

T1 sequence (P39004 whole entry): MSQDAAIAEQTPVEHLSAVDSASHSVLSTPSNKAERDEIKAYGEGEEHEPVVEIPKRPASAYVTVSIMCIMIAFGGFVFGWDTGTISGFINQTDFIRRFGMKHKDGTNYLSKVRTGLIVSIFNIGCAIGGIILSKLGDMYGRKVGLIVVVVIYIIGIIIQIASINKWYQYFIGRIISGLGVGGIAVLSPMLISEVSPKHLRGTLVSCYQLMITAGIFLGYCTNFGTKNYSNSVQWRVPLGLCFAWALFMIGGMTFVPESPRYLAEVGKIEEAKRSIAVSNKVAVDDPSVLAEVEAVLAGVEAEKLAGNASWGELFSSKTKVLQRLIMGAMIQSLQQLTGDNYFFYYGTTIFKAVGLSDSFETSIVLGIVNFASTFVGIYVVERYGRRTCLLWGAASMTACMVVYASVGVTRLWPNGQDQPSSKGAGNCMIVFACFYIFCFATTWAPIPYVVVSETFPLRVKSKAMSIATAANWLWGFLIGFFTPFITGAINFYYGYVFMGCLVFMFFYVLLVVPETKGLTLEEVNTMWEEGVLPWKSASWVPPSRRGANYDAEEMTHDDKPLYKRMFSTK

## Cc1nc(Sc2nnc3n2CCCCC3)c2c(-c3cccs3)csc2n1 [WBC-A]
[1]
  Proliferation of U266 cell line: inhibit proliferation
Yeast Hxt7 carrier
  IC50: 51 µM
Yeast Hxt7 carrier; 25 μM, 2.5 mM glucose, hxt^0 gal2Δ strain
  Inhibition of glucose uptake by Hxt7 at 25 μM: inhibited
tps1Δ cells [2]; 100 μM WBC-A, 5 mM glucose
  Rescue of tps1Δ growth on galactose in the presence of 5 mM glucose: rescued growth
tps1Δ cells [2]; 100 μM WBC-A, 7.5 mM glucose
  Rescue of tps1Δ growth in the presence of 7.5 mM glucose: not able to restore growth
tps1Δ cells [2]; 100 μM WBC-A, 2% galactose
  Growth of tps1Δ cells on galactose in the absence of glucose: significant growth delay
tps1Δ cells [2]; 2.5 mM glucose
  Minimal rescue concentration for growth of tps1Δ cells on 2.5 mM glucose: 25 µM
[3]
  Glucose consumption and lactate production in A549 cells: did not cause inhibition
hexokinase
  Effect on in vitro hexokinase activity: No significant effect
tps1Δ cells [4]
  Ki: 8.35 µM
tps1Δ cells [4]; printed K′, read-out: K′i, glucose uptake, tps1Δ cells
  Ki: 35.4 µM
tps1Δ cells [4]; Lineweaver-Burk plot analysis
  Type of inhibition of glucose uptake, tps1Δ cells: mixed type
Wild type cells
  Ki: 9.04 µM
Wild type cells; printed K′, read-out: K′i, glucose uptake, wild type cells
  Ki: 36.6 µM
Wild type cells; Lineweaver-Burk plot analysis
  Type of inhibition of glucose uptake, wild type cells: mixed type
